Measurements reported in US5554542A, “Immunoassay for isothiazolones” (Rohm and Haas Company, priority 1993, dated 1996).

Tests used:
Assay type in all cases: binding, mouse
[1] = tested on: antibodies produced by cell culture 89-147EH9; experiment: CIEIA for detection of biocides, four inhibitors at several concentrations; conditions: for 10 Minute Absorbances × 1000: no inhibitor 515
Method: The supernatants from wells with growing colonies of hybridomas were screened using CIEIA. Ninety-six well polystyrene EIA ([…]) plates were coated with 100 μl of 651 conjugated to BSA (651-BSA) for at least two hours at room temperature or 16 hours at 4° C. Unbound material was washed from the wells with five washes of PBS-T. […] The wells then received 50 μl of supernatant from each cell culture, so that each supernatant was reacted with either buffer, 651 or 573 (inhibitors). […] The wells were incubated for 30-60 minutes at room temperature. They were then washed five times with PBS-T to remove unbound material and each well then received 100 μl of a 1 μg/ml solution of biotinylated horse anti-mouse IgG (Vector Laboratories, Burlingame, Calif.), and the assay continued as described for the ELISA, supra.

[2] = tested on: antibodies of 89-147EH9 clones; experiment: CIEIA reactivity of 89-147EH9 clones with compounds 651 and 573
Method: (§1) The supernatants from wells with growing colonies of hybridomas were screened using CIEIA. Ninety-six well polystyrene EIA ([…]) plates were coated with 100 μl of 651 conjugated to BSA (651-BSA) for at least two hours at room temperature or 16 hours at 4° C. Unbound material was washed from the wells with five washes of PBS-T. The wells then received 50 μl of buffer alone (PBS-T) or inhibitors, either 651 or 573, each diluted to 2 ppm in buffer. The wells then received 50 μl of supernatant from each cell culture, so that each supernatant was reacted with either buffer, 651 or 573 (inhibitors). […] The wells were incubated for 30-60 minutes at room temperature. They were then washed five times with PBS-T to remove unbound material and each well then received 100 μl of a 1 μg/ml solution of biotinylated horse anti-mouse IgG (Vector Laboratories, Burlingame, Calif.), and the assay continued as described for the ELISA, supra.
In order to assure that the antibodies reactive with compound 651 were produced by cells of the identical genetic makeup, it was necessary to derive clones of cell culture 89--147EH9. Cloning was accomplished by first determining the total number of viable cells in a population of 89-147EH9 cells. The cell population was then diluted to a density of 4-5 cells per ml of cell culture medium. Two hundred μl of this cell suspension was then planted in each well of four 96 well cell culture dishes, designated I-IV. Fourteen days later, each well was checked by microscopic evaluation for growing colonies of cells. Those with only a single loci of cells were designated monoclonal.
Subsequently, each colony was tested for reactivity in the ELISA described previously. Of the colonies, several were selected for expansion and retesting by CIEIA for reactivity with both 651 and 573.

[3] = tested on: antibodies in hybridoma culture supernatants (CF10, EH9, EC2, EC2 IB8); experiment: CIEIA of hybridoma culture supernatants; conditions: for Inhibition of antibody binding to coating antigen: cell culture 89-147EH9, coating antigen 651-BSA; for Inhibitors (Absorbance): coating 651-BSA
Method: as §1
If the antibodies in a supernatant were reactive with one or both of the inhibitors in solution in the wells, the antibody molecules, or a percentage of the antibody molecules, would bind to the inhibitors, and would therefore form an antibody-inhibitor complex which would stay in solution and be removed from the plate during the washing step. In such a case, the binding of the antibody to the inhibitor would reduce the number of antibody molecules available to bind to the coating antigen, 651-BSA. Because fewer antibody molecules are attached to the 651-BSA, there is a reduction in the number of biotinylated horse anti-mouse IgG molecules bound, resulting in fewer molecules of avidin-peroxidase complex being bound, resulting in reduced hydrolysis of the substrate, leading ultimately to lower absorbances.
It is possible to manipulate the CIEIA to achieve greater inhibition by varying the concentrations of coating antigen, antibodies and detection molecules (such as the horse anti-mouse IgG and the avidin-peroxidase complex). Such "optimization" of the CIEIA is used to obtain higher levels of sensitivity and allow the use of lower concentrations (i.e. higher dilutions) of the monoclonal antibodies.

[4] = inhibitor concentration 0.08 ppm
[5] = inhibitor concentration 0.4 ppm
[6] = clone IA5, inhibitor 1 PPM, PBS 528
[7] = clone ID5, inhibitor 1 PPM, PBS 584
[8] = clone ID8, inhibitor 1 PPM, PBS 746
[9] = clone IID1, inhibitor 1 PPM, PBS 060
[10] = clone IIIH6, inhibitor 1 PPM, PBS 647
[11] = clone IVE1, inhibitor 1 PPM, PBS 818
[12] = clone IVE4, inhibitor 1 PPM, PBS 595
[13] = clone IVF12, inhibitor 1 PPM, PBS 090
[14] = clone IVH2, inhibitor 1 PPM, PBS 680
[15] = culture CF10, supernatant dilution 1:2, inhibitor 1 PPM, no inhibitor 0.485
[16] = culture CF10, supernatant dilution 1:2.5, inhibitor 1 PPM, no inhibitor 0.121
[17] = culture EC2, supernatant dilution 1:2, inhibitor 1 PPM, no inhibitor 0.847
[18] = culture EC2, supernatant dilution 1:12, inhibitor 1 PPM, no inhibitor 0.917
[19] = culture EC2 IB8 (a clone of 89147EC2), supernatant dilution 1:6, inhibitor 1 PPM, no inhibitor 0.169
[20] = culture EH9, supernatant dilution 1:2, inhibitor 1 PPM, no inhibitor 0.170
[21] = culture EH9, supernatant dilution 1:2.5, inhibitor 1 PPM, no inhibitor 0.386

| SMILES | 10 Minute Absorbances × 1000 [1, 4] | 10 Minute Absorbances × 1000 [1, 5] | 10 Minute Absorbances × 1000 ([1]; inhibitor concentration 2 ppm) | 10 Minute Absorbances × 1000 ([1]; inhibitor concentration 10 ppm) | % I (percentage inhibition) ([2]; clone IA5, inhibitor 1 PPM) | Absorbances × 1000 [2, 6] | % I (percentage inhibition) ([2]; clone ID5, inhibitor 1 PPM) | Absorbances × 1000 [2, 7] | % I (percentage inhibition) ([2]; clone ID8, inhibitor 1 PPM) | Absorbances × 1000 [2, 8] | % I (percentage inhibition) ([2]; clone IID1, inhibitor 1 PPM) | Absorbances × 1000 [2, 9] | % I (percentage inhibition) ([2]; clone IIIH6, inhibitor 1 PPM) | Absorbances × 1000 [2, 10] | % I (percentage inhibition) ([2]; clone IVE1, inhibitor 1 PPM) | Absorbances × 1000 [2, 11] | % I (percentage inhibition) ([2]; clone IVE4, inhibitor 1 PPM) | Absorbances × 1000 [2, 12] | % I (percentage inhibition) ([2]; clone IVF12, inhibitor 1 PPM) | Absorbances × 1000 [2, 13] | other results |
| --- | --- | --- | --- | --- | --- | --- | --- | --- | --- | --- | --- | --- | --- | --- | --- | --- | --- | --- | --- | --- | --- |
| Cn1sc(Cl)cc1=O [compound 651, 5-chloro-2-methyl-3-isothiazolone] | 448 | 338 | 185 | 106 | 34.1% | 348 | 26.5% | 429 | 0.0% | 807 | < 1.0% | 055 | 27.2% | 471 | 44.7% | 452 | 39.3% | 361 | 27.8% | 065 | Relative reactivity of the antibodies with the compounds tested ([1]; 89-147EH9 antibodies, 651 versus similar amounts of other biocides): more strongly reactive; 10 Minute Absorbances × 1000 ([1]; inhibitor concentration 0.016 ppm): 491; % I (percentage inhibition) ([2]; clone IVH2, inhibitor 1 PPM): 46.2%; Absorbances × 1000 [2, 14]: 366; Inhibition of antibody binding to coating antigen [3]: inhibitable; Inhibitors (Absorbance) [3, 15]: 0.419; Inhibitors (Absorbance) [3, 16]: 0.119; Inhibitors (Absorbance) [3, 17]: 0.652; Inhibitors (Absorbance) [3, 18]: 0.910; Inhibitors (Absorbance) [3, 19]: 0.124; Inhibitors (Absorbance) [3, 20]: 0.150; Inhibitors (Absorbance) [3, 21]: 0.122 |
| Cn1sccc1=O [compound 573, 2-methyl-3-isothiazolone] | 590 | 461 | 504 | 344 | 10.8% | 471 | 0.0% | 671 | 0.0% | 1068 | < 1.0% | 057 | 0.0% | 705 | 34.1% | 539 | 9.4% | 539 | 18.9% | 073 | 10 Minute Absorbances × 1000 ([1]; inhibitor concentration 50 ppm): 191; % I (percentage inhibition) ([2]; clone IVH2, inhibitor 1 PPM): 7.0%; Absorbances × 1000 [2, 14]: 632; Inhibition of antibody binding to coating antigen [3]: inhibitable; Inhibitors (Absorbance) [3, 15]: 0.479; Inhibitors (Absorbance) [3, 16]: 0.099; Inhibitors (Absorbance) [3, 17]: 0.520; Inhibitors (Absorbance) [3, 18]: 0.872; Inhibitors (Absorbance) [3, 19]: 0.121; Inhibitors (Absorbance) [3, 20]: 0.117; Inhibitors (Absorbance) [3, 21]: 0.135 |
